Experimental data as given in article PMC3823830 (Anesthesiology, 2013).
“Also recorded” adds a separate entry of the source. Read-outs that look alike come from different tables or passages of the source.

What was measured:
P-gp [1] = settings: rats; cited from earlier work
P-gp [2] = settings: bovine brain capillary cell P-gp-mediated transport; cited from earlier work
[3] = cited from earlier work
[4] = Compartmental pharmacokinetic modeling of morphine and morphine glucuronides; type: in vivo, human; settings: for Delay time (appearance of the metabolite in plasma): set at 0.01 h for M-3-G when not estimable; for VSS of morphine glucuronide: fixed at 0.2 × body mass (kg); for Vd / clearance: both, human, plasma, intravenous; for VC (central volume): constrained to be the same in both sessions
clinical = settings: both, human, plasma, iv, 0.1 mg/kg
healthy volunteers [5] = settings: average; cyclosporine did not change this delay
healthy volunteers [6] = assay: Pharmacokinetic-pharmacodynamic effect-site modeling of miosis; settings: for Predicted maximum biophase concentration: model-predicted
healthy volunteers [7] = settings: morphine 0.1 mg/kg
P-gp [8] = settings: humans; cited from earlier work
P-gp [9] = settings: cited from earlier work
P-gp [10] = settings: mouse, in vivo; cited from earlier work
human P-gp = settings: cited from earlier work
[11] = tested on: mdr1a (murine MDR1 homologue); settings: cited from earlier work
P-gp [12] = settings: P-gp-overexpressing cells; cited from earlier work
[13] = with cyclosporine, median (range)

COc1cc2c(cc1OC)CN(CCc1ccc(NC(=O)c3cccc4c(=O)c5cccc(OC)c5[nH]c34)cc1)CC2 [GF120918]
Increase in morphine antinociception (P-gp [1]): approximately 3 fold
Effect on basolateral to apical flux of morphine (P-gp [2]): abolished

CN1CC[C@]23c4c5ccc(O[C@@H]6O[C@H](C(=O)O)[C@@H](O)[C@H](O)[C@H]6O)c4O[C@H]2[C@@H](O)C=C[C@H]3[C@H]1C5 [Morphine-3-glucuronide, morphine-3-glucuronide]
Clinical effect [3]: no clinical effect
Time of peak plasma concentration after the end of the morphine infusion (control): 0.2 h
Plasma AUC ratio (morphine glucuronide/morphine) (control, mean ± SD): 5.0 ± 1.2
Plasma Tmax (control, relative to start of morphine infusion, mean ± SD): 1.2 ± 0.2 h
Delay of time to peak plasma concentration by cyclosporine (cyclosporine vs control): 0.4 h
Plasma AUC ratio (morphine glucuronide/morphine) (with cyclosporine, mean ± SD): 5.3 ± 1.1
ClE (glucuronide elimination clearance) ([4]; control, median (range)): 8.4 (5.3 to 12.4) L/h
Fraction eliminated (percent of morphine dose eliminated as the glucuronide metabolite) ([4]; control, median (range)): approximately 40%
Fraction eliminated (percent of morphine dose eliminated as the glucuronide metabolite) ([4]; control, median (range), […]): 40.5 (27 to 52) %
Delay time (appearance of the metabolite in plasma) ([4]; control, median (range)): 0.010 (0.003 to 0.09) h
CLEM-3-G (elimination clearance represented by metabolism to morphine-glucuronide) ([4]; control, CLE × percent eliminated as glucuronide, mean ± SD): 39.0 ± 14.8 L/h
VSS of morphine glucuronide ([4]; control, mean ± SD): 15.0 ± 2.5 L
Decrease in median glucuronide elimination clearance by cyclosporine ([4]; cyclosporine vs control): more than 10%
ClE (glucuronide elimination clearance) [4, 13]: 7.5 (3.7 to 14.0) ^@ L/h
Fraction eliminated (percent of morphine dose eliminated as the glucuronide metabolite) [4, 13]: approximately 40%
Fraction eliminated (percent of morphine dose eliminated as the glucuronide metabolite) ([4]; with cyclosporine, median (range), […]): 43.4 (21 to 73) %
Delay time (appearance of the metabolite in plasma) [4, 13]: 0.022 (0.003 to 0.13) ^& h
CLEM-3-G (elimination clearance represented by metabolism to morphine-glucuronide) ([4]; with cyclosporine, CLE × percent eliminated as glucuronide, mean ± SD): 35.3 ± 13.4 L/h
VSS of morphine glucuronide ([4]; with cyclosporine, mean ± SD): 15.0 ± 2.5 L

CN1CC[C@]23c4c5ccc(O)c4O[C@H]2[C@@H](O[C@@H]2O[C@H](C(=O)O)[C@@H](O)[C@H](O)[C@H]2O)C=C[C@H]3[C@H]1C5 [Morphine-6-glucuronide, morphine-6-glucuronide]
Plasma AUC ratio (morphine glucuronide/morphine) (control, mean ± SD): 0.88 ± 0.20
Plasma AUC ratio (morphine glucuronide/morphine) (with cyclosporine, mean ± SD): 0.85 ± 0.20
AUC(0-inf) (clinical): 117 ± 32 ng·h/mL
Cmax (clinical): 24.9 ± 5.2 ng/mL
half-life (clinical): 2.8 ± 1.2 h
Vd [4]: 15 ± 2.5 L
Vd ([4]; 0.1 mg/kg): 15 ± 2.5 L
clearance ([4]; 0.1 mg/kg, CLEM-6-G (elimination clearance represented by metabolism to morphine-glucuronide), control, CLE × percent eliminated as glucuronide, mean ± SD): 138 mL/min
clearance ([4]; 0.1 mg/kg, ClE (glucuronide elimination clearance), control, median (range)): 160 mL/min
clearance ([4]; CLEM-6-G (elimination clearance represented by metabolism to morphine-glucuronide), with cyclosporine, CLE × percent eliminated as glucuronide, mean ± SD): 103 mL/min
Fraction eliminated (percent of morphine dose eliminated as the glucuronide metabolite) ([4]; control, median (range), listed as Morphine-6- glucuronide): 8.1 (4.9 to 12.5) %
Fraction eliminated (percent of morphine dose eliminated as the glucuronide metabolite) ([4]; control, median (range), listed as morphine-6-glucuronide): 8.1%
Delay time (appearance of the metabolite in plasma) ([4]; control, median (range)): 0.11 (0.04 to 0.34) h
Decrease in median glucuronide elimination clearance by cyclosporine ([4]; cyclosporine vs control): ~25%
Fraction eliminated (percent of morphine dose eliminated as the glucuronide metabolite) ([4]; with cyclosporine, median (range), listed as Morphine-6- glucuronide): 7.4 (3.3 to 16.6) ^& %
Fraction eliminated (percent of morphine dose eliminated as the glucuronide metabolite) ([4]; with cyclosporine, median (range), listed as morphine-6-glucuronide): 7.4%
Delay time (appearance of the metabolite in plasma) [4, 13]: 0.18 (0.06 to 0.37) h

CN1CC[C@]23c4c5ccc(O)c4O[C@H]2[C@@H](O)C=C[C@H]3[C@H]1C5 [Morphine]
Time of maximum miosis after the end of the morphine infusion (healthy volunteers [5]): 1.6 h
Predicted maximum biophase concentration (healthy volunteers [6]; after cyclosporine): 41 ± 13 ng/mL
Maximum calculated effect site morphine concentration (healthy volunteers [6]; control (abstract)): 7.6 ± 2.9 ng/mL
Predicted maximum biophase concentration (healthy volunteers [6]; control): 27 ± 11 ng/mL
Maximum calculated effect site morphine concentration (healthy volunteers [6]; with cyclosporine (abstract)): 11.5 ± 3.7 ng/mL
VC (central volume) ([4]; control, mean ± SD): 21.5 ± 4.7 L
Average peripheral volume (VP) during cyclosporine treatment less than control ([4]; cyclosporine vs control, not statistically significant): approximately 11%
VC (central volume) ([4]; with cyclosporine, mean ± SD): 21.5 ± 4.7 L
Analgesic effect (thermal stimulus) (healthy volunteers [7]): negligible analgesic effects

C/C=C/C[C@@H](C)C(=O)[C@H]1C(=O)N[C@@H](C(C)C)C(=O)N(C)CC(=O)N(C)[C@@H](CC(C)C)C(=O)N[C@@H](C(C)C)C(=O)N(C)[C@@H](CC(C)C)C(=O)N[C@@H](C)C(=O)N[C@H](C)C(=O)N(C)[C@@H](CC(C)C)C(=O)N(C)[C@@H](CC(C)C)C(=O)N(C)[C@@H](C(C)C)C(=O)N1C [PSC833]
Effect on morphine-related respiratory depression (and drowsiness) (P-gp [8]): did not significantly change; also recorded: no effect

C=C[C@H]1C[N@@]2CC[C@H]1C[C@@H]2[C@@H](O)c1ccnc2ccc(OC)cc12 [Quinidine]
IC50 (P-gp [9]): 3 µM
IC50 (P-gp [10]): 36 µM
IC50 (human P-gp): 34 µM

CN(C)C(=O)C(CCN1CCC(O)(c2ccc(Cl)cc2)CC1)(c1ccccc1)c1ccccc1 [loperamide]
Transport ratio in mdr1-knockout mice vs control [11]: 10.4
Efflux ratio (P-gp [12]): > 20%
